Where “and” joins values, the source holds several entries; their conditions need not be identical. Identical values can stand only once.
Assays:
[1] = Heparin oral/intracolonic delivery, clotting time by activated partial thromboplastin time (APTT); type: in vivo, Sprague-Dawley rats; conditions: IC (intracolonic), rats; delivery agent compound 50 mg/kg, heparin 25 mg/kg, volume dose 1 ml; baseline about 20 seconds
Procedure: Oral gavage (PO) and/or intracolonic (IC) dosing solutions containing a delivery agent compound and heparin sodium USP were prepared in 25% aqueous propylene glycol. […] This dry mixture was dissolved in 25% v/v aqueous propylene glycol, vortexed, and placed in a sonicator (about 37° C.). The pH was adjusted to about 7 (6.5 to 8.5) with aqueous NaOH (2N). The dosing solution was sonicated to produce a clear solution. The final volume was adjusted to about 3.0 ml.
(§1) The typical dosing and sampling protocols were as follows. […] The dosing solution was expressed slowly into the colon by pressing the syringe plunger.
Citrated blood samples were collected by cardiac puncture following the administration of ketamine (88 mg/kg), typically at 0.25, 0.5, 1.0 and 1.5 hours after dosing. Heparin absorption was verified by an increase in clotting time measured by the activated partial thromboplastin time (APTT) according to the method of Henry, J. B., Clinical Diagnosis and Management by Laboratory Methods, Philadelphia, Pa., W.B. Saunders (1979). Previous studies indicated baseline values of about 20 seconds.

[2] = Salmon calcitonin (sCT) oral delivery, serum sCT by EIA; conditions: rats, delivery agent compound dose 150 mg/kg, sCT dose 30 μg/kg
Procedure: Oral dosing (PO) compositions of a delivery agent compound and salmon calcitonin (sCT) in deionized water were prepared as described in Table 2 below. […] Either the sodium salt of the compound was used or the free acid was converted to the sodium salt by stirring the resultant solution and adding one equivalent of sodium hydroxide (1.0 N) and diluting with water. The solution was vortexed, then heated (about 37° C.) and sonicated. The pH was adjusted to about 7 (about 6.5 to 8.5) with NaOH or HCl. 90 μg sCT from a sCT stock solution (2 mg/ml made by adding 10001 pH 4 phosphate buffer to sCT and allowing it to go into solution by sitting for about 10-20 minutes and periodically gently inverting) was added to the solution.
The typical dosing and sampling protocols were as follows. Male Sprague-Dawley rats weighing between 200-250 g were fasted for 24 hours and administered ketamine (44 mg/kg) and chlorpromazine (1.5 mg/kg) 15 minutes prior to dosing and again as needed to maintain anesthesia. A dosing group of five animals was administered one of the dosing solutions. For oral dosing, an 11 cm Rusch 8 French catheter was adapted to a 1 ml syringe with a pipette tip. The syringe was filled with dosing solution by drawing the solution through the catheter, which was then wiped dry. The catheter was placed down the esophagus leaving 1 cm of tubing past the incisors. Solution was administered by pressing the syringe plunger.
Blood samples were collected serially from the tail artery, typically at time=0, 10, 20, 30, 60 and 90 minutes. […] Numbers were adjusted according to baseline values obtained at time=0. The results from the animals in each dosing group were averaged for each time point.

[3] = Recombinant human growth hormone (rhGH) oral delivery, serum rhGH by immunoassay; conditions: oral gavage, rats, volume dose 1 ml
[4] = Insulin oral delivery, serum human insulin by ELISA; conditions: rats
Procedure: Oral dosing (PO) compositions of delivery agent compound and human zinc insulin (minimum 26 IU/mg available from Calbiochem—Novabiochem Corp, La Jolla, Calif.) were prepared in deionized water. […] The pH was adjusted to about 7 to 8.5 with NaOH or HCl. […] The final delivery agent compound dose, insulin dose and dose volume amounts are listed below in Table 8.
The typical dosing and sampling protocols were as follows.
Serum insulin levels were determined with an Insulin ELISA Test Kit (Kit # DSL-10-1600 from Diagnostic Systems Laboratories, Inc., Webster, Tex.), modifying the standard protocol in order to optimize the sensitivity and linear range of the standard curve for the volumes and concentrations of the samples used in the present protocol. […] The five values for each time point were averaged and the results plotted as serum insulin concentration versus time.

[5] = Low molecular weight heparin (LMWH) oral/intracolonic delivery, plasma LMWH by anti-Factor Xa assay; type: in vivo, Sprague-Dawley rats; conditions: IC, rats, LMWH 750 IU/kg, 1 ml/kg
Procedure: Oral dosing (PO) and/or intracolonic (IC) compositions containing a delivery agent compound and low molecular weight heparin (LMWH) were prepared in 25% aqueous propylene glycol. […] Typically, the delivery agent compound and LMWH (Parnaparin, 91 IU/mg average molecular weight about 5,000, available from Opocrin, Modena, Italy) (typically 90-105 IU/mg, average molecular weight about 5,000) were mixed by vortex as dry powders. This dry mixture was dissolved in 25% v/v aqueous propylene glycol, vortexed, and placed in a sonicator (37° C.) to produce a clear solution. The pH was adjusted to about 7 (6.5-8.5) with 2N aqueous NaOH. The dosing solution was sonicated to produce a clear solution. The final volume was adjusted to 3.0 ml.
as §1
Citrated blood samples were collected by cardiac puncture following the administration of ketamine (88 mg/kg), typically at 0.5, 1.0, 2.0, 3.0 and 4.0 hours after dosing. LMWH absorption was verified by an increase in plasma LMWH measured by the anti-Factor Xa assay CHROMOSTRATE™ Heparin anti-Xa assay (available from Organon Teknika Corporation, Durham, N.C.). […] The peak of these mean plasma LMWH concentrations is reported below in Table 5.

[6] = delivery agent compound 200 mg/kg, rhGH 3 mg/kg
[7] = delivery agent compound 200 mg/kg, insulin 0.5 mg/kg, 1 ml/kg
[8] = delivery agent compound 50 mg/kg
[9] = delivery agent compound 25 mg/kg
[10] = delivery agent compound 200 mg/kg, insulin 3 mg/kg, 1 ml/kg
[11] = delivery agent compound 100 mg/kg, insulin 3 mg/kg, 0.5 ml/kg

O=C(O)CCCOc1ccccc1O [Compound 4]
Mean Peak APTT ± SD [1]: 40.3 ± 17.8 s and 23.076 ± 4.72 s and 37.148 ± 39.67 s
Mean Peak Serum sCT (pg/ml ± SD) (SE) ([2]; dose volume 1 (ml), 150 mg/kg): 187 ± 177 pg/mL and 195 ± 436 pg/mL
Mean Peak Serum [rhGH] [3, 6]: 12.6 ng/mL

O=C(O)CCCCCCCCCOc1ccccc1O [Compound 8]
Mean Peak APTT ± SD [1]: 251.94 ± 67.96 s
Mean Peak Serum [INS] ± SD [4, 7]: 13.14 ± 6.81 μU/ml
Mean Peak Serum sCT (pg/ml ± SD) (SE) ([2]; dose volume 1 (ml), 150 mg/kg): 166 ± 190 pg/mL and 194 ± 239 pg/mL and 327 ± 323 pg/mL
Mean Peak Serum sCT (pg/ml ± SD) (SE) ([2]; dose volume 2 (ml)): 36 ± 49 pg/mL
Mean Peak Serum [rhGH] [3, 6]: 4.88 ng/mL

CC(=O)c1ccccc1OCCCC(=O)O [Compound 9]
Mean Peak Plasma LMWH Concentration ± SD [5, 8]: 0.474 ± 0.095 IU/ml
Mean Peak APTT ± SD [1]: 21.45 ± 1.71 s
Mean Peak Serum [rhGH] [3, 6]: 1 ng/mL

CC=Cc1ccccc1OCCCCCCCC(=O)O [Compound 18]
Mean Peak Serum sCT (pg/ml ± SD) (SE) ([2]; dose volume 2 (ml)): 14 ± 4183 pg/mL
Mean Peak Serum [rhGH] ([3]; delivery agent compound 162 mg/kg, rhGH 2.6 mg/kg): 3.1 ng/mL
Mean Peak Serum [rhGH] [3, 6]: 223 ng/mL

Nc1ccccc1OCCCCCCCC(=O)O [Compound 19]
Mean Peak Plasma LMWH Concentration ± SD [5, 8]: 0.65 ± 0.37 IU/ml
Mean Peak Serum [INS] ± SD [4, 7]: 4.32 ± 1.39 μU/ml
Mean Peak Serum [rhGH] [3, 6]: 39.5 ng/mL

O=C(O)CCCCCCCOc1ccccc1[N+](=O)[O-] [Compound 20]
Mean Peak Serum [INS] ± SD [4, 7]: 27.68 ± 12.5 μU/ml
Mean Peak Serum sCT (pg/ml ± SD) (SE) ([2]; dose volume 1 (ml), 150 mg/kg): 138 ± 107 pg/mL and 85 ± 82 pg/mL and 96 ± 135 pg/mL
Mean Peak Serum [rhGH] [3, 6]: 22.6 ng/mL

Nc1ccccc1OCCCCC(=O)O [Compound 21]
Mean Peak Serum [INS] ± SD [4, 7]: 14.46 ± 21.61 μU/ml
Mean Peak Serum [rhGH] [3, 6]: 19.6 ng/mL

Nc1cc(Cl)ccc1OCCCCCCCC(=O)O [Compound 22]
Mean Peak Plasma LMWH Concentration ± SD ([5]; delivery agent compound 10 mg/kg): 0.396 ± 0.153 IU/ml
Mean Peak Plasma LMWH Concentration ± SD [5, 9]: 1.496 ± 0.153 IU/ml
Mean Peak Plasma LMWH Concentration ± SD [5, 8]: 1.842 ± 0.205 IU/ml
Mean Peak APTT ± SD [1]: 287.9 ± 120.1 s
Mean Peak Serum [INS] ± SD [4, 7]: 24.16 ± 28.11 μU/ml
Mean Peak Serum [rhGH] [3, 6]: 0 ng/mL

Nc1cc(Cl)ccc1OCCCCC(=O)O [Compound 23]
Mean Peak Serum sCT (pg/ml ± SD) (SE) ([2]; dose volume 1 (ml), 150 mg/kg): 161 ± 150 pg/mL and 122 ± 273 pg/mL

CC(=O)Nc1ccccc1OCCCCCCCC(=O)O [Compound 24]
Mean Peak Serum [rhGH] [3, 6]: 1.76 ng/mL

CCC(=O)c1ccccc1OCCCCCC(=O)O [Compound 27]
Mean Peak Plasma LMWH Concentration ± SD [5, 8]: 1.622 ± 0.265 IU/ml
Mean Peak Serum sCT (pg/ml ± SD) (SE) ([2]; dose volume 1 (ml)): 163 ± 106 pg/mL
Mean Peak Serum [rhGH] [3, 6]: 12.9 ng/mL

CCC(=O)c1ccccc1OCCCCCCCC(=O)O [Compound 28]
Mean Peak Plasma LMWH Concentration ± SD [5, 9]: 1.43 ± 0.31 IU/ml
Mean Peak Plasma LMWH Concentration ± SD [5, 8]: 1.64 ± 0.45 IU/ml
Mean Peak APTT ± SD [1]: 143.6 ± 44 s and 251.1 ± 109.34 s
Mean Peak Serum sCT (pg/ml ± SD) (SE) ([2]; dose volume 1 (ml)): 138 ± 90 pg/mL

CCC(=O)c1ccccc1OCCCCCCCCCC(=O)O [Compound 29]
Mean Peak APTT ± SD [1]: 105.01 ± 115.28 s and 111.46 ± 108.58 s
Mean Peak Serum [rhGH] [3, 6]: 0 ng/mL

COc1ccccc1OCCCCCCCC(=O)O [Compound 35]
Mean Peak APTT ± SD [1]: 65.8 ± 35.5 s
Mean Peak Serum [INS] ± SD [4, 7]: 132.3 ± 154.5 μU/ml

CC(O)c1ccccc1OCCCCCCCC(=O)O (stereo not drawn) [Compound 36]
Mean Peak Serum sCT (pg/ml ± SD) (SE) ([2]; dose volume 1 (ml)): 0 ± 62 pg/mL
Mean Peak Serum [rhGH] [3, 6]: 0 ng/mL

CC(C)(O)c1ccccc1OCc1ccc(C(=O)O)cc1 [Compound 37]
Mean Peak Serum [rhGH] [3, 6]: 29 ng/mL

COc1cccc(OCCCCCCCC(=O)O)c1C(C)=O [Compound 39]
Mean Peak Serum sCT (pg/ml ± SD) (SE) ([2]; dose volume 1 (ml), 150 mg/kg): 115 ± 120 pg/mL and 115 ± 178 pg/mL
Mean Peak Serum [rhGH] [3, 6]: 0 ng/mL

CNC(=O)c1ccccc1OCCCCCCCCCC(=O)O [Compound 51]
Mean Peak APTT ± SD [1]: 92.5 ± 41.5 s

NC(=O)c1ccccc1OCc1ccc(C(=O)O)cc1 [Compound 52]
Mean Peak Serum sCT (pg/ml ± SD) (SE) ([2]; dose volume 1 (ml)): 163 ± 300 pg/mL
Mean Peak Serum [rhGH] [3, 6]: 0 ng/mL

CC(=O)c1ccccc1OCCCCCCCCCC(=O)O [Compound 54]
Mean Peak Plasma LMWH Concentration ± SD [5, 8]: 3.046 ± 0.422 IU/ml
Mean Peak APTT ± SD [1]: 31.56 ± 7.54 s
Mean Peak Serum sCT (pg/ml ± SD) (SE) ([2]; dose volume 1 (ml)): 34 ± 47 pg/mL
Mean Peak Serum [rhGH] [3, 6]: 6.37 ng/mL

COc1ccc(OCCCCCCCC(=O)O)c(C(C)=O)c1 [Compound 55]
Mean Peak Serum [rhGH] [3, 6]: 12.4 ng/mL

COc1ccc(C(C)=O)c(OCCCCCCCC(=O)O)c1 [Compound 56]
Mean Peak Serum sCT (pg/ml ± SD) (SE) ([2]; dose volume 1 (ml), 150 mg/kg): 165 ± 243 pg/mL and 90 ± 125 pg/mL and 113 ± 115 pg/mL and 175 ± 150 pg/mL
Mean Peak Serum [rhGH] [3, 6]: 0 ng/mL

O=Cc1ccccc1OCc1ccc(C(=O)O)cc1 [Compound 59]
Mean Peak Serum [INS] ± SD [4, 7]: 315.53 ± 154.56 μU/ml

O=Cc1ccccc1OCCCCCC(=O)O [Compound 60]
Mean Peak Serum [rhGH] [3, 6]: 1.5 ± 3.3 ng/mL

CC(=O)c1ccc(OCCCCCCCC(=O)O)cc1 [Compound 62]
Mean Peak APTT ± SD [1]: 152.41 ± 136.63 s and 91.204 ± 117.43 s
Mean Peak Serum sCT (pg/ml ± SD) (SE) ([2]; dose volume 1 (ml)): 117 ± 158 pg/mL
Mean Peak Serum [rhGH] [3, 6]: 6.2 ng/mL

CC(=O)c1cccc(OCCCCCCCC(=O)O)c1 [Compound 64]
Mean Peak APTT ± SD [1]: 220.988 ± 122.2 s and 125.372 ± 114.72 s
Mean Peak Serum sCT (pg/ml ± SD) (SE) ([2]; dose volume 1 (ml)): 138 ± 148 pg/mL
Mean Peak Serum [rhGH] [3, 6]: 5 ng/mL

O=C(O)c1ccc(COc2ccccc2)cc1 [Compound 66]
Mean Peak Plasma LMWH Concentration ± SD ([5]; delivery agent compound 50 mg/kg, 50 mg/kg): 0.952 IU/ml and 1.114 ± 0.254 IU/ml
Mean Peak Serum sCT (pg/ml ± SD) (SE) ([2]; dose volume 4 (ml)): 109 ± 244 pg/mL
Mean Peak Serum [rhGH] [3, 6]: 0 ng/mL

O=C(O)CCCCCCCOc1cccc(Cl)c1 [Compound 68]
Mean Peak Serum [INS] ± SD [4, 10]: 76.23 ± 76.88 μU/ml

O=C(O)CCCCCCCCCCOc1ccccc1O [Compound 72]
Mean Peak Serum [INS] ± SD [4, 10]: 4702.5 ± 4700.4 μU/ml
Mean Peak Serum [rhGH] [3, 6]: 28 ng/mL

O=C(O)CCCCCCCOc1ccccc1Cl [Compound 73]
Mean Peak Serum [INS] ± SD [4, 11]: 147.66 ± 176.71 μU/ml

O=C(O)CCCCCCCOc1cc([N+](=O)[O-])ccc1O [Compound 74]
Mean Peak Serum [INS] ± SD [4, 11]: 70.69 ± 127.89 μU/ml

O=C(O)CCCCOc1ccccc1F [Compound 75]
Mean Peak Serum [INS] ± SD [4, 7]: 33.88 ± 38.49 μU/ml and 32.54 ± 19.78 μU/ml

O=C(O)CCCCOc1ccccc1C(F)(F)F [Compound 76]
Mean Peak Serum [INS] ± SD [4, 7]: 24.72 ± 25.53 μU/ml and 38.74 ± 74.4 μU/ml

O=C(O)c1ccc(C(O)COc2ccccc2O)cc1 (stereo not drawn) [Compound 79]
Mean Peak Serum sCT (pg/ml ± SD) (SE) ([2]; dose volume 1 (ml)): 133 ± 90 pg/mL
